pIC50: −log10 of the molar value. Numbered stars: 1 amine (or outer) side, 2 acyl side, 3 side chain; on linkers, the order of the positions; unused ones are H or OH. Square brackets hold non-standard residues; d marks the D form. Peptide text beside a SMILES is read from it. * marks the point of attachment. X7 = O=C([C@H](Cc1nc2ccccc2o1)N[*:1])[*:2]; Abu(4,4,4-F3) = N[C@@H](CC(F)(F)F)C(=O)O; NH(1-CH2NMe2-cBu) = CN(C)CC1(N*)CCC1; Gly(octyl) = CCCCCCCC[C@H](N)C(=O)O; Oxazole4CO(2-Me) = Cc1nc(C(=O)*)co1; β3hAib = CC(C)(CC(=O)[*:2])N[*:1]; Benzoyl(4-F) = O=C(c1ccc(F)cc1)*; hCha = N[C@@H](CCC1CCCCC1)C(=O)O; Cha = N[C@@H](CC1CCCCC1)C(=O)O; β3hL = CC(C)C[C@H](N)CC(=O)O; NHCH2CH2NMe2 = CN(C)CCN*; Aib = CC(C)(N)C(=O)O; βAla = NCCC(=O)O
System: cutaneous squamous cell carcinoma cell line SCC12
Assay: In vitro anti-proliferative assay (resazurin) in SCC12
Type: cell-based
Settings: SCC12, 72 hours
Source text: Methodology. The cutaneous squamous cell carcinoma cell culture SCC12 was cultivated in keratinocyte-SFM media (KSFM, Cat #17005042, Gibco) supplemented with human recombinant epidermal growth factor 1-53 (EGF 1-53) and bovine pituitary extract (BFE).
Vehicle treated wells were set to 100% viability.

| SMILES | pIC50 |
| --- | --- |
| CC(C)C[C@H](NC(=O)[C@H](Cc1nc2ccccc2o1)NC(=O)[C@@H]1CCCN1C(=O)c1ccc(F)cc1)C(=O)NC(C)(C)C(=O)N[C@@H](CC(C)C)C(=O)N[C@@H](CC(C)C)C(=O)NC(C)(C)C(=O)NC(C)(C)C(=O)NCCC(=O)NC1(CN(C)C)CCC1 [Compound 7850, (2S)-2-[(2S)-3-(1,3-benzoxazol-2-yl)-2-{[(2S)-1-(4-fluorobenzoyl)pyrrolidin-2-yl]formamido}propanamido]-N-(1-{[(1S)-1-{[(1S)-1-({1-[(1-{[2-({1-[(dimethylamino)methyl]cyclobutyl}carbamoyl)ethyl]carbamoyl}-1-methylethyl)carbamoyl]-1-methylethyl}carbamoyl)-3-methylbutyl]carbamoyl}-3-methylbutyl]carbamoyl}-1-methylethyl)-4-methylpentanamide] ({Benzoyl(4-F)}-P[X7]L[Aib]LL[Aib][Aib][βAla]-{NH(1-CH2NMe2-cBu)}) | 5.98 |
| CC(C)C[C@H](NC(=O)[C@H](CCC1CCCCC1)NC(=O)[C@@H]1CCCN1C(=O)c1ccc(F)cc1)C(=O)NC(C)(C)C(=O)N[C@@H](CC(C)C)C(=O)N[C@@H](CC(C)C)C(=O)NC(C)(C)C(=O)NC(C)(C)C(=O)NCCC(=O)NCCN(C)C [Compound 8343, (2S)-2-[(2S)-4-cyclohexyl-2-{[(2S)-1-(4-fluorobenzoyl)pyrrolidin-2-yl]formamido}butanamido]-N-(1-{[(1S)-1-{[(1S)-1-{[1-({1-[(2-{[2-(dimethylamino)ethyl]carbamoyl}ethyl)carbamoyl]-1-methylethyl}carbamoyl)-1-methylethyl]carbamoyl}-3-methylbutyl]carbamoyl}-3-methylbutyl]carbamoyl}-1-methylethyl)-4-methylpentanamide] ({Benzoyl(4-F)}-P[hCha]L[Aib]LL[Aib][Aib][βAla]-NHCH2CH2NMe2) | 6.62 |
| CC(C)C[C@H](NC(=O)[C@H](CCC1CCCCC1)NC(=O)[C@@H]1CCCN1C(=O)c1ccc(F)cc1)C(=O)NC(C)(C)C(=O)N[C@@H](CC(C)C)C(=O)N[C@@H](CC(C)C)C(=O)NC(C)(C)C(=O)NC(C)(C)CC(=O)NCCC(=O)NC1(CN(C)C)CCC1 [Compound 21365, (2S)-2-[(2S)-4-cyclohexyl-2-{[(2S)-1-(4-fluorobenzoyl)pyrrolidin-2-yl]formamido}butan-amido]-N-(1-{[(1S)-1-{[(1S)-1-({1-[(1-{[2-({1-[(dimethylamino)methyl]cyclobutyl}carbamoyl)ethyl]carbamoyl}-2-methylpropan-2-yl)carbamoyl]-1-methylethyl}carbamoyl)-3-methylbutyl]carbamoyl}-3-methylbutyl]carbamoyl}-1-methylethyl)-4-methylpentanamide] ({Benzoyl(4-F)}-P[hCha]L[Aib]LL[Aib][β3hAib][βAla]-{NH(1-CH2NMe2-cBu)}) | 6.29 |
| CCCCCCCC[C@H](NC(=O)[C@@H]1CCCN1C(=O)c1coc(C)n1)C(=O)N[C@@H](CC(C)C)C(=O)NC(C)(C)C(=O)N[C@@H](CC(C)C)C(=O)N[C@@H](CC(C)C)C(=O)NC(C)(C)C(=O)NC(C)(C)C(=O)NCCC(=O)NC1(CN(C)C)CCC1 [Compound 6253, (2S)—N-[(1S)-1-[(1-{[(1S)-1-{[(1S)-1-({1-[(1-{[2-({1-[(dimethylamino)methyl]cyclobutyl}carbamoyl)ethyl]carbamoyl}-1-methylethyl)carbamoyl]-1-methylethyl}carbamoyl)-3-methylbutyl]carbamoyl}-3-methylbutyl]carbamoyl}-1-methylethyl)carbamoyl]-3-methylbutyl]-2-{[(2S)-1-(2-methyl-1,3-oxazole-4-carbonyl)pyrrolidin-2-yl]formamido}decanamide] ({Oxazole4CO(2-Me)}-P[Gly(octyl)]L[Aib]LL[Aib][Aib][βAla]-{NH(1-CH2NMe2-cBu)}) | 6.85 |
| Cc1nc(C(=O)N2CCC[C@H]2C(=O)N[C@@H](CC2CCCCC2)C(=O)N[C@@H](CC(C)C)C(=O)NC(C)(C)C(=O)N[C@@H](CC(C)C)C(=O)N[C@@H](CC(C)C)C(=O)NC(C)(C)C(=O)NC(C)(C)C(=O)NCCC(=O)NC2(CN(C)C)CCC2)co1 [Compound 7059, (2S)-2-[(2S)-3-cyclohexyl-2-{[(2S)-1-(2-methyl-1,3-oxazole-4-carbonyl)pyrrolidin-2-yl]formamido}propanamido]-N-(1-{[(1S)-1-{[(1S)-1-({1-[(1-{[2-({1-[(dimethylamino)methyl]cyclobutyl}carbamoyl)ethyl]carbamoyl}-1-methylethyl)carbamoyl]-1-methylethyl}carbamoyl)-3-methylbutyl]carbamoyl}-3-methylbutyl]carbamoyl}-1-methylethyl)-4-methylpentanamide] ({Oxazole4CO(2-Me)}-P[Cha]L[Aib]LL[Aib][Aib][βAla]-{NH(1-CH2NMe2-cBu)}) | 6.30 |
| CC(C)C[C@@H](CC(=O)NC(C)(C)C(=O)N[C@@H](CC(C)C)C(=O)N[C@@H](CC(C)C)C(=O)NC(C)(C)C(=O)NC(C)(C)C(=O)NCCC(=O)NC1(CN(C)C)CCC1)NC(=O)[C@H](CCC1CCCCC1)NC(=O)[C@@H]1CCCN1C(=O)c1ccc(F)cc1 [Compound 21314, (3S)-3-[(2S)-4-cyclohexyl-2-{[(2S)-1-(4-fluorobenzoyl)pyrrolidin-2-yl]formamido}butan-amido]-N-(1-{[(1S)-1-{[(1S)-1-({1-[(1-{[2-({1-[(dimethylamino)methyl]cyclobutyl}carba-moyl)ethyl]carbamoyl}-1-methylethyl)carbamoyl]-1-methylethyl}carbamoyl)-3-methylbutyl]carbamoyl}-3-methylbutyl]carbamoyl}-1-methylethyl)-5-methylhexanamide] ({Benzoyl(4-F)}-P[hCha][β3hL][Aib]LL[Aib][Aib][βAla]-{NH(1-CH2NMe2-cBu)}) | 6.49 |
| CN(C)CC1(NC(=O)CCNC(=O)C(C)(C)NC(=O)C(C)(C)NC(=O)[C@H](CC(F)(F)F)NC(=O)[C@H](CC(F)(F)F)NC(=O)C(C)(C)NC(=O)[C@H](CC(F)(F)F)NC(=O)[C@H](CCC2CCCCC2)NC(=O)[C@@H]2CCCN2C(=O)c2ccc(F)cc2)CCC1 [Compound 21372, (2S)-4-cyclohexyl-N-[(1S)-1-[(1-{[(1S)-1-{[(1S)-1-({1-[(1-{[2-({1-[(dimethylamino)methyl]cyclobutyl}carbamoyl)ethyl]carbamoyl}-1-methylethyl)carbamoyl]-1-methylethyl}carba-moyl)-3,3,3-trifluoropropyl]carbamoyl}-3,3,3-trifluoropropyl]carbamoyl}-1-methylethyl)carbamoyl]-3,3,3-trifluoropropyl]-2-{[(2S)-1-(4-fluorobenzoyl)pyrrolidin-2-yl]formamido}butanamide] ({Benzoyl(4-F)}-P[hCha][Abu(4,4,4-F3)][Aib][Abu(4,4,4-F3)][Abu(4,4,4-F3)][Aib][Aib][βAla]-{NH(1-CH2NMe2-cBu)}) | 6.35 |
